The values below come from ChEMBL document CHEMBL3046716, “Design of potent human steroid 5-reductase inhibitors: 3D-QSAR CoMFA, CoMSIA and docking studies” (Med Chem Res, 2013).

For assay [1], the species on record is Homo sapiens. As to the kind of experiment: Ratio of compound IC50 to (4aR,4bS,6aS,7S,9aS,9bS,11aR)-N,N-diethyl-1,4a,6a-trimethyl-2-oxohexadecahydro-1H-indeno[5,4-f]quinoline-7-carboxamide IC50 for human steroid 5alpha-reductase.
The species named for assay [2] is Homo sapiens. As to the kind of experiment: Ratio of compound pIC50 to (4aR,4bS,6aS,7S,9aS,9bS,11aR)-N,N-diethyl-1,4a,6a-trimethyl-2-oxohexadecahydro-1H-indeno[5,4-f]quinoline-7-carboxamide pIC50 for human steroid 5alpha-reductase.

The term pIC50 denotes −log10 of the IC50, conventionally taken in molar units. As to `CCN(CC)C(=O)[C@H]1CC[C@H]2[C@@H]3CC[C@H]4N(C)C(=O)[C@@H]5O[C@@H]5[C@]4(C)[C@H]3CC[C@]12C`, in assay [1], the Ratio IC50 came out at 63. For the same compound, the pIC50 in assay [2] is 6.2.
For `C[C@]12CCC(=O)N[C@@H]1CC[C@@H]1[C@@H]2CC[C@]2(C)[C@@H](C(N)=O)CC[C@@H]12` the same measures were 150 and 5.82.
In the case of `CCN(CC)C(=O)CNC(=O)[C@H]1CC[C@H]2[C@@H]3CC[C@H]4N(C)C(=O)CC[C@]4(C)[C@H]3CC[C@]12C`, the Ratio IC50 in assay [1] was 11. Moreover, the negative logarithm of the IC50 (pIC50) in assay [2] is 6.96.
For `CC(C)NC(=O)[C@H]1CC[C@H]2[C@@H]3CC[C@H]4N(C)C(=O)CC[C@]4(C)[C@H]3CC[C@]12C` the same measures were 4 and 7.4.
`C[C@H](CO)[C@H]1CC[C@H]2[C@@H]3CC[C@H]4N(C)C(=O)CC[C@]4(C)[C@H]3CC[C@]12C`: the Ratio IC50 in assay [1] was found to be 15. Moreover, in assay [2], the pIC50 came to 6.82.
For `CCOC(=O)C[C@H]1CC[C@H]2[C@@H]3CC[C@H]4N(C)C(=O)CC[C@]4(C)[C@H]3CC[C@]12C` the same measures were 29 and 6.54.
For `CN1C(=O)CC[C@]2(C)[C@H]3CC[C@]4(C)[C@@H](C(=O)NC(C)(C)C)CC[C@H]4[C@@H]3CC[C@@H]12` the same measures were 1.1 and 7.96.
On to `CCN(CC)C(=O)C[C@H]1CC[C@H]2[C@@H]3CC[C@H]4N(C)C(=O)CC[C@]4(C)[C@H]3CC[C@]12C`, for which, in assay [1], the Ratio IC50 was found to be 2. In addition, the pIC50 in assay [2] was 7.7.
On to `COC(=O)[C@H]1CC[C@H]2[C@@H]3CC[C@H]4N(C)C(=O)CC[C@]4(C)[C@H]3CC[C@]12C`, for which the Ratio IC50 in assay [1] came to 17. Further, the negative logarithm of the IC50 (pIC50) in assay [2] stood at 6.77.
In the same order, the values of `CC(C)N(C(=O)[C@H]1CC[C@H]2[C@@H]3CC[C@H]4N(C)C(=O)CC[C@]4(C)[C@H]3CC[C@]12C)C(C)C` are 0.82 and 8.09.
In the same order, the values of `COC(=O)[C@H]1CC[C@H]2[C@@H]3CC[C@H]4NC(=O)CC[C@]4(C)[C@H]3CC[C@]12C` are 42 and 6.38.
For `CCCCCCCNC(=O)[C@H]1CC[C@H]2[C@@H]3CC[C@H]4N(C)C(=O)CC[C@]4(C)[C@H]3CC[C@]12C` the same measures were 4 and 7.4.
On to `CCN(CC)C(=O)[C@H]1CC[C@H]2[C@@H]3CC[C@H]4N(C)C(=O)[C@@H](OC)C[C@]4(C)[C@H]3CC[C@]12C`, for which, in assay [1], the Ratio IC50 stood at 15. In addition, the pIC50 in assay [2] worked out at 6.82.
In the same order, the values of `CC(C)N(C(=O)[C@H]1CC[C@H]2[C@@H]3CC[C@H]4NC(=O)CC[C@]4(C)[C@H]3CC[C@]12C)C(C)C` are 1.5 and 7.82.
In the same order, the values of `CCN(CCO)C(=O)[C@H]1CC[C@H]2[C@@H]3CC[C@H]4N(C)C(=O)CC[C@]4(C)[C@H]3CC[C@]12C` are 3 and 7.52.
In the same order, the values of `CNC(=O)[C@H]1CC[C@H]2[C@@H]3CC[C@H]4N(C)C(=O)CC[C@]4(C)[C@H]3CC[C@]12C` are 28 and 6.55.
Turning to `CCC(C)C(=O)[C@H]1CC[C@H]2[C@@H]3CC[C@H]4NC(=O)CC[C@]4(C)[C@H]3CC[C@]12C` (stereo not given in full), the Ratio IC50 in assay [1] stood at 4. For the same compound, the pIC50 in assay [2] was found to be 7.4.
In the same order, the values of `CC(C)(C)CC(C)(C)NC(=O)[C@H]1CC[C@H]2[C@@H]3CC[C@H]4NC(=O)CC[C@]4(C)[C@H]3CC[C@]12C` are 0.56 and 8.25.
Turning to `CN1C(=O)CC[C@]2(C)[C@H]3CC[C@]4(C)[C@@H](C5=NCCO5)CC[C@H]4[C@@H]3CC[C@@H]12`, the Ratio IC50 in assay [1] was 11. The pIC50 in assay [2] was found to be 6.96.
Turning to `CC(=O)[C@H]1CC[C@H]2[C@@H]3CC[C@H]4N(C)C(=O)CC[C@]4(C)[C@H]3CC[C@]12C`, in assay [1], the Ratio IC50 came to 27. For the same compound, the pIC50 in assay [2] amounted to 6.57.
In the same order, the values of `CC(C)CC(=O)[C@H]1CC[C@H]2[C@@H]3CC[C@H]4N(C)C(=O)CC[C@]4(C)[C@H]3CC[C@]12C` are 2.7 and 7.57.
For `CN1C(=O)CC[C@]2(C)[C@H]3CC[C@@]4(C)[C@@H](CC[C@@]45CCCO5)[C@@H]3CC[C@@H]12` the same measures were 144 and 5.84.
In the same order, the values of `CC(C)(C)OC(=O)[C@H]1CC[C@H]2[C@@H]3CC[C@H]4NC(=O)CC[C@]4(C)[C@H]3CC[C@]12C` are 8.6 and 7.07.
As to `CN1C(=O)CC[C@]2(C)[C@H]3CC[C@]4(C)[C@@H](C5=NC(C)(C)CO5)CC[C@H]4[C@@H]3CC[C@@H]12`, the Ratio IC50 in assay [1] is 125. Also, the negative logarithm of the IC50 (pIC50) in assay [2] was 5.9.
For the compound `CCN(CC)C(=O)[C@H]1CC[C@H]2[C@@H]3CC[C@H]4N(C)C(=O)C[C@H](C)[C@]4(C)[C@H]3CC[C@]12C`, the Ratio IC50 in assay [1] is 7. In assay [2], the pIC50 stood at 7.16.
As for `COC(CNC(=O)[C@H]1CC[C@H]2[C@@H]3CC[C@H]4NC(=O)CC[C@]4(C)[C@H]3CC[C@]12C)OC`, the Ratio IC50 in assay [1] stood at 20. In assay [2], the pIC50 amounted to 6.7.
In the same order, the values of `C[C@]12CCC(=O)N[C@@H]1CC[C@@H]1[C@@H]2CC[C@]2(C)[C@@H](C(=O)c3ccco3)CC[C@@H]12` are 3.6 and 7.44.
In the same order, the values of `CC(O)[C@H]1CC[C@H]2[C@@H]3CC[C@H]4N(C)C(=O)CC[C@]4(C)[C@H]3CC[C@]12C` (stereo not given in full) are 17 and 6.77.
Consider `CC(C)CC(=O)[C@H]1CC[C@H]2[C@@H]3CC[C@H]4NC(=O)CC[C@]4(C)[C@H]3CC[C@]12C`, for which the Ratio IC50 in assay [1] was 4.2. Besides, the pIC50 in assay [2] came out at 7.38.
In the same order, the values of `CCNC(=O)[C@H]1CC[C@H]2[C@@H]3CC[C@H]4N(C)C(=O)CC[C@]4(C)[C@H]3CC[C@]12C` are 9.4 and 7.03.
For `COC(=O)[C@H](C)[C@H]1CC[C@H]2[C@@H]3CC[C@H]4N(C)C(=O)CC[C@]4(C)[C@H]3CC[C@]12C` the same measures were 143 and 5.84.
For `CCN(CC)C(=O)[C@H]1CC[C@H]2[C@@H]3CC[C@H]4N(C)C(=O)C(OC)(OC)C[C@]4(C)[C@H]3CC[C@]12C` the same measures were 28 and 6.55.
Take `CCN(CC)C(=O)[C@H]1CC[C@H]2[C@@H]3CC[C@H]4N(C)C(=O)[C@@H](C)C[C@]4(C)[C@H]3CC[C@]12C`: the Ratio IC50 in assay [1] was found to be 3.6. Moreover, in assay [2], the negative logarithm of the IC50 (pIC50) was 7.44.
With `CCN(CC)C(=O)[C@H]1CC[C@H]2[C@@H]3CC[C@H]4N(C)C(=O)[C@@H]5C[C@@H]5[C@]4(C)[C@H]3CC[C@]12C`, the Ratio IC50 in assay [1] worked out at 1.3. Also, the pIC50 in assay [2] stood at 7.89.
With `C[C@]12CCC(=O)N[C@@H]1CC[C@@H]1[C@@H]2CC[C@@]2(C)[C@H]1CC[C@@]21CCCO1`, the Ratio IC50 in assay [1] came to 735. Further, the negative-log IC50 (pIC50) in assay [2] was 5.13.
Consider `CCN(CC)C(=O)[C@H]1CC[C@H]2[C@@H]3CC[C@H]4N(C)C(=O)[C@@H](F)C[C@]4(C)[C@H]3CC[C@]12C`, for which, in assay [1], the Ratio IC50 was found to be 5. Besides, the negative logarithm of the IC50 (pIC50) in assay [2] was 7.3.
For `CN1C(=O)CC[C@]2(C)[C@H]3CC[C@]4(C)[C@@H](C#N)CC[C@H]4[C@@H]3CC[C@@H]12` the same measures were 83 and 6.08.
In the same order, the values of `CN1C(=O)CC[C@]2(C)[C@H]3CC[C@]4(C)[C@@H](C(=O)NC(C)(C)CC(C)(C)C)CC[C@H]4[C@@H]3CC[C@@H]12` are 0.52 and 8.28.
With `CCCCCCCNC(=O)[C@H]1CC[C@H]2[C@@H]3CC[C@H]4NC(=O)CC[C@]4(C)[C@H]3CC[C@]12C`, the Ratio IC50 in assay [1] was 2.4. Further, the pIC50 in assay [2] is 7.62.
For the compound `CCN(CC)C(=O)CC[C@@H](C)[C@H]1CC[C@H]2[C@@H]3CC[C@H]4N(C)C(=O)CC[C@]4(C)[C@H]3CC[C@]12C`, the Ratio IC50 in assay [1] amounted to 27. The negative logarithm of the IC50 (pIC50) in assay [2] amounted to 6.57.
In the same order, the values of `CCCCCNC(=O)[C@H]1CC[C@H]2[C@@H]3CC[C@H]4N(C)C(=O)CC[C@]4(C)[C@H]3CC[C@]12C` are 2.4 and 7.62.
In the case of `CN1C(=O)CC[C@]2(C)[C@H]3CC[C@]4(C)[C@@H](C(=O)N5CCOCC5)CC[C@H]4[C@@H]3CC[C@@H]12`, in assay [1], the Ratio IC50 worked out at 5.6. Also, the negative logarithm of the IC50 (pIC50) in assay [2] is 7.25.
Take `CN1C(=O)CC[C@]2(C)[C@H]3CC[C@]4(C)[C@@H](C(=O)NC(C)(C)CO)CC[C@H]4[C@@H]3CC[C@@H]12`: the Ratio IC50 in assay [1] is 2. In assay [2], the pIC50 was 7.7.
For `CN1C(=O)CC[C@]2(C)[C@H]3CC[C@]4(C)[C@@H](C(=O)SC(C)(C)C)CC[C@H]4[C@@H]3CC[C@@H]12` the same measures were 47 and 6.33.
As for `CCN(CC)C(=O)/C=C1/CC[C@H]2[C@@H]3CC[C@H]4N(C)C(=O)CC[C@]4(C)[C@H]3CC[C@]12C`, in assay [1], the Ratio IC50 stood at 1.5. For the same compound, the pIC50 in assay [2] came out at 7.82.
As for `CCN(CC)C(=O)[C@H]1CC[C@H]2[C@@H]3CC[C@H]4NC(=O)CC[C@]4(C)[C@H]3CC[C@]12C`, the Ratio IC50 in assay [1] is 1.2. The negative-log IC50 (pIC50) in assay [2] worked out at 7.92.
In the same order, the values of `CC(C)(C)NC(=O)[C@H]1CC[C@H]2[C@@H]3CC[C@H]4NC(=O)CC[C@]4(C)[C@H]3CC[C@]12C` are 1.7 and 7.77.
In the same order, the values of `CN1C(=O)CC[C@]2(C)[C@H]3CC[C@]4(C)[C@@H](C(=O)c5ccco5)CC[C@H]4[C@@H]3CC[C@@H]12` are 2 and 7.7.
With `CCN(CC)C(=O)[C@H]1CC[C@H]2[C@@H]3CC[C@H]4N(C)C(=O)CC[C@]4(C)[C@H]3CC[C@]12C`, the Ratio IC50 in assay [1] was 1. Further, the negative logarithm of the IC50 (pIC50) in assay [2] stood at 8.
For `CCN(CC)C(=O)[C@@H](C)[C@H]1CC[C@H]2[C@@H]3CC[C@H]4N(C)C(=O)CC[C@]4(C)[C@H]3CC[C@]12C` the same measures were 390 and 5.41.
